“Also recorded” adds a separate entry of the source.
How the values were obtained:
[1] = system: L-687,414-induced hyperlocomotion; assay: L-687,414-induced hyperlocomotion (Digiscan locomotor activity); type: in vivo, mouse; settings: mice; for Inhibition, ip: dose ip 30, at the same time as s.c. 50 mg/kg L-687,414, % inhibition of horizontal activity; for ID50 po: p.o. 15 min before s.c. 50 mg/kg L-687,414, dose producing 50% inhibition of hyperlocomotion
Protocol: The authors described that hyperlocomotion induced by L-687,414 was inhibited by a series of known antipsychotic drugs. […] These findings predict antipsychotic activity for the present compounds, making them useful for the treatment of schizophrenia and other disorders as described above.
The described compounds of formula I and I-1 reduce L-687,414-induced hyperlocomotion. This was assessed by using a computerized Digiscan 16 Animal Activity Monitoring System (Omnitech Electronics, Columbus, Ohio) to quantify locomotor activity. Animals were kept under a 12 h light/dark cycle and experiments were performed during the light period. Each activity monitoring chamber consisted of a Plexiglas box (41×41×28 cm; W×L×H) with sawdust bedding on the floor surrounded by invisible horizontal and vertical infrared sensor beams. The test boxes were divided by a Plexiglas cross providing each mouse with 20×20 cm of moving space. Cages were connected to a Digiscan Analyzer linked to a computer that constantly collected the beam status information. Records of photocell beam interruptions for individual animals were taken every 5 min over the duration of the experimental session and the sum of the first 6 periods was used as the final parameter. Compounds were administered either p.o. 15 min before a s.c. injection of 50 mg/kg of L-687,414, or i.p. at the same time as a s.c. injection of 50 mg/kg of L-687,414. Mice were then transferred from their home cage to the recording chambers for a 15-min habituation phase allowing free exploration of the new environment. Horizontal activity was then recorded for a 30-min time period. The % inhibition of L-687,414-induced hyperlocomotion was calculated according to the equation: ((Veh+L-687,414 horizontal activity−drug+L-687,414 horizontal activity)/Veh+L-687,414 horizontal activity)×100
ID50 values, defined as doses of each compound producing 50% inhibition of L-687,414-induced hyperlocomotion, were calculated by linear regression analysis of a dose-response data using an Excel-based computer-fitting program.
As data was not presupposed to be normally distributed, groups treated with test compounds were statistically compared with the control (vehicle-treated) group using one-tailed Mann Whitney U tests. In statistics, the Mann-Whitney U test (also called the Mann-Whitney-Wilcoxon (MWW) or Wilcoxon rank-sum test) is a non-parametric statistical hypothesis test for assessing whether one of two samples of independent observations tends to have larger values than the other. It is one of the most well-known non-parametric significance tests. […] P values given in table 1 are one-tailed since only decreases in locomotion were expected and tested for (Mann, H. B., Whitney, D. R. (1947), “On a Test of Whether one of Two Random Variables is Stochastically Larger than the Other”, Annals of Mathematical Statistics, 18 (1), 50-60).

[2] = system: behaviors of compound-treated mice; assay: SmartCube behavioral signature, similarity to atypical antipsychotics; type: in vivo; settings: for discrimination rate vs Clozapine / discrimination rate vs Olanzapine / discrimination rate vs Risperidone: SmartCube, i.p. 15 minutes before test, 0.70 or lower = similar; for SmartCube signature: i.p., mice, classification by similarity to drug classes
Text: In addition to the reversal of L-687,414 induced hyperlocomotion experiment as described above, some compounds of the present invention have been tested in SmartCube®, an automated system in which the behaviors of compound-treated mice in response to multiple challenges are captured by digital video and analyzed with computer algorithms (Roberds et al., Frontiers in Neuroscience, 2011, Vol. 5, Art. 103, 1-4). In this way, the neuro-pharmacological effects of a test compound can be predicted by similarity to major classes of compounds, such as antipsychotics, anxiolytics and antidepressants.
SmartCube® was used to compare the behavioral signature of a test compound to a database of behavioral signatures obtained from a large set of clinically approved reference drugs, grouped per indications. In this way, the neuro-pharmacological effects of a test compound can be predicted by similarity to major classes of compounds, such as antipsychotics, anxiolytics and antidepressants. This approach is ideally suited to screen collections of existing drugs or drug candidates with previously unknown neuropharmacology, which could expedite the development of new and unexpected treatments for psychiatric disorders.
Some compounds of the present invention were injected i.p. at different doses 15 minutes before the test. At least 8 mice were used in each treatment group. Digital videos of the subjects were processed with computer vision algorithms to extract over 2000 dependent measures including frequency and duration of many different behavioral states. The results of the classifications are presented as bar charts for each dose (mg/kg), the Y-axis indicates the relative probability that the test compound will show efficacy in the specific CNS indication.
For comparison, the behavioral signature of the atypical antipsychotic risperidone is shown in FIG. 3 (for behavioral signatures of further atypical antipsychotic, e.g. clozapine, olanzapine, see also Roberds et al., Frontiers in Neuroscience, 2011, Vol. 5, Art. 103, 1-4). Compounds of the present invention show similar signatures to those of atypical antipsychotics. An independent analysis was performed on the unclassified data to determine the similarity of the example compounds to active doses of known atypical antipsychotics. For this analysis, we use discrimination rate as the measure of separability between the two drugs, i.e. one drug's “distinguishability” from another. A rate equal to 50% (or 0.5) corresponds to zero distinguishability. […] In most cases, the example compounds show a similarity to risperidone, clozapine and olanzapine with a discrimination rate of ≦0.70.

CCN1C(=O)C(C)(C)c2ccc(NC(=O)c3cccnc3)cc21 [Example 21, N-(1-Ethyl-3,3-dimethyl-2-oxoindolin-6-yl)nicotinamide]
Inhibition, ip [1]: 76.6%

CN1C(=O)C(C)(C)c2ccc(NC(=O)c3ccncc3F)cc21 [Example 29, 3-Fluoro-N-(1,3,3-trimethyl-2-oxoindolin-6-yl)isonicotinamide]
ID50 po [1]: 1.08 mg/kg | discrimination rate vs Clozapine [2]: 0.63 | discrimination rate vs Olanzapine [2]: 0.58 | discrimination rate vs Risperidone [2]: 0.56 | SmartCube signature [2]: similarity to atypical antipsychotics; also recorded: profile similar to that of atypical antipsychotics

COc1cnccc1C(=O)Nc1ccc2c(c1)N(C)C(=O)C2(C)C [Example 15, 3-Methoxy-N-(1,3,3-trimethyl-2-oxoindolin-6-yl)isonicotinamide]
Inhibition, ip [1]: 56.3%

Cc1cc(C(=O)Nc2cc3c(cc2F)C(C)(C)C(=O)N3C2CC2)ccn1 [Example 46, N-(1-Cyclopropyl-5-fluoro-3,3-dimethyl-2-oxoindolin-6-yl)-2-methylisonicotinamide]
Inhibition, ip [1]: 72.7%

CC1(C)C(=O)N(C2COC2)c2cc(NC(=O)c3ccncc3Cl)ccc21 [Example 62, 3-Chloro-N-(3,3-dimethyl-1-(oxetan-3-yl)-2-oxoindolin-6-yl)isonicotinamide]
Inhibition, ip [1]: 61.7%

CCN1C(=O)C(C)(C)c2ccc(NC(=O)c3ccnc(C)c3)cc21 [Example 39, N-(1-Ethyl-3,3-dimethyl-2-oxoindolin-6-yl)-2-methylisonicotinamide]
Inhibition, ip [1]: 58.6%

CC1(C)C(=O)N(CCO)c2cc(NC(=O)c3ccncc3F)ccc21 [Example 68, 3-Fluoro-N-(1-(2-hydroxyethyl)-3,3-dimethyl-2-oxoindolin-6-yl)isonicotinamide]
Inhibition, ip [1]: 89.1%

CN1C(=O)C(C)(C)c2cc(F)c(NC(=O)c3ccncc3Cl)cc21 [Example 51, 3-Chloro-N-(5-fluoro-1,3,3-trimethyl-2-oxoindolin-6-yl)isonicotinamide]
Inhibition, ip [1]: 80.1%

COc1ncc(C(=O)Nc2cc3c(cn2)C(C)(C)C(=O)N3C2CC2)cn1 [Example 88, N-(1-Cyclopropyl-3,3-dimethyl-2-oxo-2,3-dihydro-1H-pyrrolo[3,2-c]pyridin-6-yl)-2-methoxypyrimidine-5-carboxamide]
ID50 po [1]: 6.11 mg/kg

CC1(C)C(=O)N(C2COC2)c2cc(NC(=O)c3ccncc3F)ccc21 [Example 59]
Inhibition, ip [1]: 88.6%

Cc1ncc(C(=O)Nc2ccc3c(c2)N(C)C(=O)C3(C)C)c(C)n1 [Example 12, 2,4-Dimethyl-N-(1,3,3-trimethyl-2-oxoindolin-6-yl)pyrimidine-5-carboxamide]
Inhibition, ip [1]: 69.2%

CC1(C)C(=O)Nc2cc(NC(=O)c3ccncc3F)ccc21 [Example 72, N-(3,3-Dimethyl-2-oxoindolin-6-yl)-3-fluoroisonicotinamide]
ID50 po [1]: 2.22 mg/kg

O=C(Nc1ccc2c(c1)N(C1CC1)C(=O)C21CC1)c1ccncc1F [Example 57, N-(1′-Cyclopropyl-2′-oxospiro[cyclopropane-1,3′-indoline]-6′-yl)-3-fluoroisonicotinamide]
Inhibition, ip [1]: 60.5%

CN1C(=O)C(C)(C)c2ccc(NC(=O)c3ccncc3)cc21 [Example 2, N-(1,3,3-Trimethyl-2-oxo-2,3-dihydro-1H-indol-6-yl)-isonicotinamide]
ID50 po [1]: 2.06 mg/kg

CC1(C)C(=O)N(C2CC2)c2cc(NC(=O)c3ccncc3Cl)ccc21 [Example 30, 3-Chloro-N-(1-cyclopropyl-3,3-dimethyl-2-oxoindolin-6-yl)isonicotinamide]
ID50 po [1]: 0.97 mg/kg | discrimination rate vs Clozapine [2]: 0.68 | discrimination rate vs Olanzapine [2]: 0.67 | discrimination rate vs Risperidone [2]: 0.72 | SmartCube signature [2]: similarity to atypical antipsychotics; also recorded: profile similar to that of atypical antipsychotics

Cc1cc(C(=O)Nc2ccc3c(c2F)N(C)C(=O)C3(C)C)ccn1 [Example 28, N-(7-fluoro-1,3,3-trimethyl-2-oxoindolin-6-yl)-2-methylisonicotinamide]
Inhibition, ip [1]: 74.7%

CC1(C)C(=O)N(C2CC2)c2cc(NC(=O)c3cccnc3)ccc21 [Example 18, N-(1-Cyclopropyl-3,3-dimethyl-2-oxoindolin-6-yl)nicotinamide]
Inhibition, ip [1]: 68.8%

CN1C(=O)C(C)(C)c2cc(F)c(NC(=O)c3cccnc3)cc21 [Example 24, N-(5-fluoro-1,3,3-trimethyl-2-oxoindolin-6-yl)nicotinamide]
Inhibition, ip [1]: 80.0%

Cc1cc(C(=O)Nc2ccc3c(c2)N(C)C(=O)C3(C)C)nc(C)n1 [Example 8, 2,6-Dimethyl-N-(1,3,3-trimethyl-2-oxoindolin-6-yl)pyrimidine-4-carboxamide]
Inhibition, ip [1]: 70.7%
